From PubChem BioAssay AID179 (DTP/NCI, 2004) come the findings set out here.

This experiment deals with CEM cells HIV-1 protection, formazan growth assay. Description: NCI AIDS Antiviral Assay. Particulars: for IC50: measured here: growth of uninfected CEM cells. The procedure, abridged: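 Human CEM cells, uninfected and HIV-1-infected, exposed to five drug concentrations; growth measured by soluble formazan assay and scored as percent protection from infection, with protecting compounds retested.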

Values joined by “and” are separate entries in the source; they are usually repeats but may differ in a detail not shown here. Equal entries are not always repeated. Active and inactive are the calls of the source.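 How the source made its calls: active means compounds giving half or more protection of infected cells from virus-caused growth loss, again on retest; inactive means the rest.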 Where a SMILES comes first, the peptide text is derived from it. [ ]: non-standard residue; d: D form. The star is where a group is joined. Myristoyl = CCCCCCCCCCCCCC(=O)*; Ava = NCCCCC(=O)O; Mpa = O=C(O)CCS

As to `CC(NC(=O)CCS)C(=O)NC(C)C(=O)NC(Cc1c[nH]c2ccccc12)C(=O)NC(Cc1c[nH]cn1)C(=O)NC(CO)C(=O)NC(Cc1c[nH]c2ccccc12)C(=O)NCCCCC(=O)NC(C)C(=O)NC(CCC(N)=O)C(=O)NC(CCCCN)C(=O)NC(C)C(=O)NC(CCCNC(=N)N)C(=O)NC(CCCCN)C(N)=O` (centres undefined) ([Mpa]AAWHSW[Ava]AQKARK-NH2; configuration not given here), the EC50 (as a rule, the concentration giving half of the maximal effect) was > 20 µM and the IC50 (commonly the concentration needed to halve the response being measured) is > 20 µM.
Consider `[N-]=[N+]=NC1(Cc2ccccc2)C(=O)Nc2ccccc2C1=O` (centres undefined), for which the EC50 is > 200 µM and the IC50 amounted to 105 µM.
As for `CCCCCCCCCCCCCC(=O)NCC(=O)NC(CO)C(=O)NC(CO)C(=O)NC(CCCCN)C(=O)NC(CO)C(=O)NC(CCCCN)C(=O)N1CCCC1C(=O)NC(CCCCN)C(=O)NC(CC(=O)O)C(=O)N1CCCC1C(=O)NC(CO)C(=O)NC(CCC(N)=O)C(=O)NC(CCCNC(=N)N)C(=O)NC(CCCNC(=N)N)C(=O)NC(CCCNC(=N)N)C(=O)NC(Cc1ccc(O)cc1)C(N)=O` (centres undefined) (Myristoyl-GSSKSKPKDPSQRRRY-NH2; configuration not given here), the EC50 was > 120 µM and the IC50 is > 120 µM.
Take `Cc1ccc(S(=O)(=O)N(CCN)c2cc3c4c(c2)Oc2cccc5c2C4c2c(cccc2O3)O5)cc1`: the EC50 was > 200 µM and the IC50 was determined as 35.5 µM.
As for `N#Cc1c2c(c(Nc3ccc(F)cc3)n3c1nc1ccccc13)CCCC2`, the EC50 is > 200 µM and the IC50 turned out to be 81.3 µM.
The like results for `COc1cc(OC)c(/C=C/c2ccncn2)c(OC)c1` were, in that order, > 182 µM and 93.3 µM.
For `CC(=O)NNC(=S)/N=C/c1c(O)cc(C)oc1=O`, the EC50 is > 200 µM and the IC50 was > 200 µM.
For the compound `NC(=O)CNC(=O)[C@@H]1C[C@@H](OCCC(=O)O)CN1C(=O)OCc1ccccc1`, the EC50 was > 200 µM and the IC50 is > 200 µM.
As for `CC(C)(C)OC(=O)N[C@H]1CC(=O)c2ccccc2N(CC(=O)O)C1=O`, the EC50 was > 251 µM and the IC50 is > 251 µM.
Consider `C=CCC1C2CCC(O[Si](C(C)C)(C(C)C)C(C)C)(C(C(=O)OC)C2)C1O` (centres undefined), for which the EC50 was > 200 µM and the half-inhibitory concentration (IC50) stood at 91.2 µM.
Regarding `CC(C)=CCCC1(C)C2COC(=O)C21` (centres undefined), the EC50 is > 200 µM; the IC50 was 70.8 µM and 15.1 µM.
As to `N#CC1(c2ccccc2)CCN(C2(c3ccccc3)CCCCC2)CC1`, the EC50 was > 200 µM and the IC50 was > 200 µM.
Turning to `Nn1c(SCC(=O)O)nc2ccccc2c1=O`, the EC50 was > 200 µM and the IC50 is > 200 µM.
Consider `O=C1NC(=O)C(CCCCO)N1` (centres undefined), for which the outcome was inactive.
On to `Cc1c(/C=N/NC(=S)Nc2ccc(Cl)cc2)c(=O)n(-c2ccccc2)n1C`, for which the EC50 is > 200 µM and the IC50 was > 200 µM.
Take `COC(=O)c1sc2c(SC#N)c3ccccn3c2c1C`: the outcome was inactive.
On to `Nc1c(N=Nc2ccc([N+](=O)[O-])cc2)c(S(=O)(=O)O)cc2cc(S(=O)(=O)O)c(N=Nc3ccccc3)c(O)c12`, for which the EC50 was > 151 µM and the IC50 was > 151 µM.
With `CSCCC(NC(c1ccccc1)c1ccccc1)[P+](=O)O` (centres undefined), the EC50 was > 200 µM and the IC50 was > 200 µM.
Take `Cc1ccc2c(=O)c3cccc(CC(=O)O)c3[nH]c2c1C`: the EC50 is > 200 µM and the IC50 is 47.9 µM.
The like results for `O=C(O)C(O)(O)C(O)(O)C(=O)O` were, in that order, > 200 µM and > 200 µM.
Take `CCOC(=O)COS(=O)(=O)C(F)(F)F`: the EC50 is > 1050 µM and the IC50 was > 1050 µM.
As to `Cc1cn(C2CC(N=[N+]=[N-])C(COC(=O)CCCCCCCCCCOc3ccc(I)cc3)O2)c(=O)[nH]c1=O` (centres undefined), the EC50 is 0.117 µM and the IC50 is 17.8 µM.
Regarding `Cc1nc(N(CCO)CCO)c2sc(=S)n(-c3ccccc3)c2n1`, the EC50 was > 10.5 µM and the IC50 is > 10.5 µM.
With `O=S1(=O)N2CN3CN(C2)CN1C3`, the outcome was inactive.
Consider `COc1cc([N+](=O)[O-])c(S(=O)(=O)O)cc1N`, for which the EC50 was > 1000 µM and the IC50 was > 1000 µM.
As for `Cc1ncc(CO)c(CO)c1OCC(O)CN1CCN(c2ccc(F)cc2)CC1` (centres undefined), the EC50 is > 200 µM and the IC50 turned out to be 97.7 µM.
For the compound `C=C1CC2CCCC12C=O` (centres undefined), the EC50 was > 263 µM and the IC50 came to 145 µM.
The like results for `O=S(O)CCCCSSSCCCCS(=O)O` were, in that order, > 200 µM and 2.69 µM.
Consider `CCOC(C)O[C@H]1C(=O)OCC1(C)C` (some centres undefined), for which the EC50 is 77.6 µM and the IC50 is > 200 µM.
With `CC(=O)CCC(=O)CC(O)(C(F)(F)F)C(F)(F)F`, the EC50 was > 200 µM and the IC50 amounted to 33.1 µM.
For the compound `NC(=O)N/N=C1\CCc2ccccc2C1`, the EC50 is > 93.3 µM and the IC50 is > 93.3 µM.
Turning to `O=C(CC(=O)N(C(=O)/C=C\c1ccccc1)c1ccc(Cl)cc1)N1N=C(c2ccccc2)C(N=Nc2cccc([N+](=O)[O-])c2)C1=O` (centres undefined), the EC50 was > 200 µM and the IC50 was 3.55 µM.
Regarding `Cc1cccc(C)c1NC(=O)C1C(=O)N(c2c(C)cccc2C)C(=O)/C1=N\NC(N)=S` (centres undefined), the EC50 is > 22.9 µM and the IC50 is > 22.9 µM.
Take `C(=C\c1nc2ccccc2s1)/c1ccc2c(c1)OCO2`: the EC50 was > 6.76 µM and the IC50 was > 6.76 µM.
`Cc1ccc([P+](Cc2ccc([N+](=O)[O-])cc2)(c2ccc(C)cc2)c2ccc(C)cc2)cc1`: the EC50 is > 200 µM and the IC50 is 3.63 µM.
Take `c1ccc(NNN2NC(c3ccccc3)C2c2ccccc2)cc1` (centres undefined): the EC50 is > 200 µM and the IC50 was > 200 µM.
For the compound `CC(C)CC(NC(=O)C(CCC(=O)O)NC(=O)CNC(=O)CNC(=O)C(CO)NC(=O)C(CC(C)C)NC(=O)C(NC(=O)C(CO)NC(=O)C(C)NC(=O)C(CCCNC(=N)N)NC(=O)C(C)NC(=O)CN)C(C)C)C(=O)NC(CC(=O)O)C(=O)NC(CCCNC(=N)N)C(=O)NC(Cc1c[nH]c2ccccc12)C(=O)NC(Cc1ccc(O)cc1)C(N)=O` (centres undefined) (H-GARASVLSGGELDRWY-NH2; configuration not given here), the EC50 is > 145 µM and the IC50 was > 145 µM.
On to `COC(=O)[C@@H]1COC(C(C)(C)C)N1C(=O)C(c1ccccc1)c1ccccc1` (some centres undefined), for which the result was inactive.
Take `Cc1cccc2[nH]c3c(c(O)cc4[nH]c5cccc(C)c5c(=O)c43)c(=O)c12`: the EC50 is > 200 µM and the IC50 is 20.9 µM.
The like results for `c1ccc([P+](CCOCC[P+](c2ccccc2)(c2ccccc2)c2ccccc2)(c2ccccc2)c2ccccc2)cc1` were, in that order, > 200 µM and 49 µM.
On to `O=NC1C2CCC(C2)C1N=O.[Co].[c-]1[c-][c-][cH-][c-]1` (centres undefined), for which the EC50 is > 200 µM and the IC50 is 49 µM.
For `CC(=O)OCC1OC(n2c(-c3ccc(N)cc3)cc(-c3ccco3)c(C#N)c2=O)C(OC(C)=O)C(OC(C)=O)C1OC(C)=O` (centres undefined), in that order: > 11.7 µM and > 11.7 µM.
`Cc1ccc(-c2nn3c(-c4ccccc4)nnc3o2)cc1`: the EC50 is > 200 µM and the IC50 was determined as 132 µM.
For the compound `O=C(CC(=O)N1N=C(N(c2ccccc2)c2ccccc2)CC1c1ccccc1)Nc1ccccc1` (centres undefined), the outcome was inactive.
With `C[N+](C)(C)CCC(=O)N1C/C(=C\c2ccccc2)C(=O)/C(=C/c2ccccc2)C1`, the EC50 is > 200 µM and the IC50 was found to be 2.82 µM.
In the case of `ONC1=Nc2ccccc2C(=S)N2CSCC12` (centres undefined), the EC50 is > 200 µM and the IC50 is > 200 µM.
For `COC(=O)C1(Cc2ccccc2)Cc2c(C)ccc(C)c2C1=O` (centres undefined), the EC50 is > 200 µM and the IC50 is > 200 µM.
On to `C1=C(c2ccccc2)NC2=N[C@H]3CCCC[C@@H]3N2C1c1ccccc1` (some centres undefined), for which the EC50 is > 126 µM and the IC50 was determined as 8.13 µM.
For `COC(=O)CNCc1cc(N(C)C)cc(CNCC(=O)OC)n1`, in that order: > 200 µM and > 200 µM.
The like results for `CNC(=O)NCCN1CC2CCC(CC2)C1` were, in that order, > 200 µM and > 200 µM.
Consider `NS(=O)(=O)c1ccc(NC(=S)/N=C\C(C(=O)c2ccccc2)=C(\O)c2ccccc2)cc1`, for which the EC50 was > 200 µM and the 50% inhibitory concentration (IC50) is 105 µM.
The like results for `CC1=NC(c2ccccc2)(C2(c3ccccc3)C(c3ccccc3)=C2c2ccccc2)C(=O)O1` (centres undefined) were, in that order, > 6.17 µM and > 6.17 µM.
In the case of `CC1(C)OP(=O)(O)C=C1Sc1ccc([N+](=O)[O-])cc1[N+](=O)[O-]`, the EC50 is > 200 µM and the IC50 was > 200 µM.
Turning to `CC(OCc1ccccc1)C1OC2(C)CCC(=O)C1O2` (centres undefined), the outcome was inactive.
Regarding `CCC(C)C(NC(=O)C(CC(C)C)NC(=O)C(N)Cc1c[nH]c2ccccc12)C(=O)NC(Cc1c[nH]c2ccccc12)C(=O)O` (centres undefined) (H-WLIW-OH; configuration not given here), the EC50 was > 407 µM and the IC50 is > 407 µM.
For `Cc1cn(C2OC(CO)C(CN=[N+]=[N-])C2O)c(=O)[nH]c1=O` (centres undefined), the EC50 is > 200 µM and the IC50 is > 200 µM.
On to `C#CCN(N=O)C(=O)NCCCC(NC(C)=O)C(=O)NCc1ccccc1` (centres undefined), for which the EC50 is > 676 µM and the IC50 is 51.3 µM.
The like results for `Cc1nnc(N)nc1/C=C/c1c(O)ccc2ccccc12` were, in that order, > 200 µM and 26.3 µM.
Consider `O=C1CCSc2nc(-c3ccc4c(c3)OCO4)nn21`, for which the EC50 is > 200 µM and the IC50 was > 200 µM.
As to `COc1ccc(C23OC2Oc2cc(OC4CCCCO4)ccc2C3=O)cc1` (centres undefined), the EC50 is > 70.8 µM and the IC50 worked out at 45.7 µM.
The like results for `Nc1nc(NCc2ccccc2)cc(NCc2ccccc2)n1` were, in that order, > 20 µM and 2.75 µM.
On to `Cc1cc(C2CC(O)C(CO)O2)c(F)cc1F` (centres undefined), for which the EC50 is > 200 µM and the IC50 was > 200 µM.
With `Nc1nn2cc3c(nc2c1N=Nc1ccccc1)CCCCC3`, the EC50 is > 200 µM and the IC50 is > 200 µM.
`O/N=C1\CC2(N3CCOCC3)CCC1(Cc1ccccc1)CC2`: the EC50 was > 100 µM and the IC50 is > 100 µM.
With `N#Cc1nc(CCCCCN2C(=O)c3ccccc3C2=O)oc1N`, the EC50 is > 200 µM and the IC50 was > 200 µM.
